Source: the supplement of paper PMC13380429

Columns and labels:
Conditions in all cases: 72 h
Vero E6 [1] = assay: relative viability EC50 (midpoint between 100% and the lowest measured viability); higher = less toxic
Caco-2 [2] = assay: as above
U2OS [3] = assay: as above
HepG2 [4] = assay: as above
Calu-3 [5] = assay: as above
Vero E6 [6] = assay: drug sensitivity score (DSS) for viability; higher = more toxic; extreme values may be limits of the assay
Caco-2 [7] = assay: as above
U2OS [8] = assay: as above
HepG2 [9] = assay: as above
Calu-3 [10] = assay: as above
Vero E6 [11] = assay: cell viability relative to DMSO; higher = less toxic
Caco-2 [12] = assay: as above
U2OS [13] = assay: as above
HepG2 [14] = assay: as above
Calu-3 [15] = assay: as above

Row | SMILES | relative viability EC50 (Vero E6 [1]) | relative viability EC50 (Caco-2 [2]) | relative viability EC50 (U2OS [3]) | relative viability EC50 (HepG2 [4]) | relative viability EC50 (Calu-3 [5]) | drug sensitivity score (Vero E6 [6]) | drug sensitivity score (Caco-2 [7]) | drug sensitivity score (U2OS [8]) | drug sensitivity score (HepG2 [9]) | drug sensitivity score (Calu-3 [10]) | cell viability (Vero E6 [11]; 1 nM) | cell viability (Vero E6 [11]; 10 nM) | cell viability (Vero E6 [11]; 100 nM) | cell viability (Vero E6 [11]; 1000 nM) | cell viability (Vero E6 [11]; 10000 nM) | cell viability (Caco-2 [12]; 1 nM) | cell viability (Caco-2 [12]; 10 nM) | cell viability (Caco-2 [12]; 100 nM) | cell viability (Caco-2 [12]; 1000 nM) | cell viability (Caco-2 [12]; 10000 nM) | cell viability (U2OS [13]; 1 nM) | cell viability (U2OS [13]; 10 nM) | cell viability (U2OS [13]; 100 nM) | cell viability (U2OS [13]; 1000 nM) | cell viability (U2OS [13]; 10000 nM) | cell viability (HepG2 [14]; 1 nM) | cell viability (HepG2 [14]; 10 nM) | cell viability (HepG2 [14]; 100 nM) | cell viability (HepG2 [14]; 1000 nM) | cell viability (HepG2 [14]; 10000 nM) | cell viability (Calu-3 [15]; 1 nM) | cell viability (Calu-3 [15]; 10 nM) | cell viability (Calu-3 [15]; 100 nM) | cell viability (Calu-3 [15]; 1000 nM) | cell viability (Calu-3 [15]; 10000 nM)
1 | C(=C\c1ccccc1)/CN1CCN(CCOC(c2ccccc2)c2ccccc2)CC1 | > 10 µM | > 10 µM | > 10 µM | > 10 µM | > 10 µM | 0 | 0.6 | 0 | 0 | 0 | 98% | 97% | 95.8% | 91.7% | 91.6% | 102% | 87.5% | 101% | 99.1% | 80.5% | 99.1% | 95.5% | 95.8% | 103% | 100% | 92.7% | 97.3% | 91.3% | 90.4% | 95.4% | 113% | 99.3% | 98.5% | 92% | 98.8%
2 | CC(C)c1cc(C(=O)N2Cc3ccc(CN4CCN(C)CC4)cc3C2)c(O)cc1O | 0.492 µM | 0.174 µM | 0.232 µM | 0.068 µM | 0.145 µM | 11 | 13.1 | 18.8 | 26 | 13.3 | 104% | 104% | 101% | 40.4% | 30.7% | 98.5% | 94.8% | 85.8% | 40% | 39.1% | 101% | 102% | 85.3% | 8.1% | 3.4% | 108% | 103% | 28.4% | 1.5% | 1.2% | 101% | 96.4% | 77.8% | 41.7% | 38.9%
3 | CN(C)CCOc1ccc(-c2nc(-c3ccncc3)c(-c3ccc4c(c3)CC/C4=N\O)[nH]2)cc1 | > 10 µM | > 10 µM | > 10 µM | 0.748 µM | > 10 µM | 0 | 0 | 0 | 12.6 | 0 | 102% | 98.5% | 105% | 112% | 113% | 106% | 103% | 99.1% | 101% | 98.6% | 93% | 108% | 99.6% | 116% | 114% | 110% | 102% | 96.8% | 39.8% | 3.5% | 99.6% | 94.5% | 114% | 115% | 117%
4 | CN1CCN(c2ccc(OC(F)(F)F)c(Nc3ncc4c(n3)-c3c(c(C(N)=O)nn3CCO)CC4)c2)CC1 | 0.395 µM | – | 0.394 µM | 0.139 µM | > 10 µM | 8.8 | 11 | 10 | 18.8 | 5.1 | 102% | 112% | 99.7% | 52.4% | 48.3% | 104% | 94.9% | 77.3% | 52% | 62.3% | 108% | 103% | 98.2% | 46.5% | 41.3% | 105% | 95% | 70.4% | 16.7% | 15.8% | 100% | 105% | 78.7% | 84.9% | 84.7%
5 | CNC(=O)c1nn(C)c2c1C(C)(C)Cc1cnc(Nc3ccc(N4CCN(C)CC4)cc3)nc1-2 | 0.409 µM | 0.518 µM | 0.898 µM | 0.288 µM | 1.2 µM | 14.8 | 10.2 | 11.6 | 14.5 | 7.9 | 91.9% | 96.1% | 85% | 31.2% | 6.4% | 98.1% | 92.2% | 90.3% | 53% | 28.9% | 99.7% | 93.6% | 97.3% | 47.4% | 3.6% | 89.9% | 102% | 75.7% | 37.7% | 16.5% | 95.1% | 100% | 89% | 67.9% | 22.1%
6 | CON(C)C(=O)[C@H](O)[C@H](Cc1ccccc1)NC(=O)c1cc2cc(Cl)ccc2[nH]1 | > 10 µM | > 10 µM | > 10 µM | > 10 µM | > 10 µM | 0 | 0 | 0 | 0 | 0 | 106% | 101% | 103% | 94.2% | 101% | 91.9% | 105% | 92.9% | 100% | 90.4% | 99.3% | 102% | 98.6% | 101% | 95.9% | 105% | 95.3% | 103% | 90.5% | 90.1% | 88.7% | 109% | 92.7% | 106% | 118%
7 | COc1cc(NC(=O)c2ccc(-c3ccc(Cl)cc3)o2)cc(OC)c1 | > 10 µM | > 10 µM | – | > 10 µM | > 10 µM | 0 | 0 | – | 0 | 0 | 94.5% | 101% | 97.2% | 97.6% | 101% | 108% | 98.9% | 107% | 102% | 98.1% | – | – | – | – | – | 105% | 109% | 91.9% | 114% | 102% | 121% | 103% | 109% | 101% | 99.3%
8 | COc1cc2c(cc1C(F)(F)F)N(C(=O)Nc1cc(F)cc(-c3cccnc3)c1)CC2 | > 10 µM | > 10 µM | > 10 µM | > 10 µM | > 10 µM | 0 | 0 | 0 | 0 | 0 | 96.9% | 96.1% | 99.4% | 99.9% | 95.1% | 96.8% | 104% | 89.8% | 99% | 98.6% | 100% | 105% | 97.4% | 103% | 95.9% | 99.5% | 90.9% | 103% | 96.4% | 113% | 102% | 91.7% | 92.9% | 101% | 93.9%
9 | COc1ccc(Cl)c(Nc2ncnc3cc(OCC4CCN(C)CC4)c(OC)cc23)c1 | 1.49 µM | – | > 10 µM | > 10 µM | 1.42 µM | 6.7 | 2.9 | 1.4 | 0 | 6.7 | 95.5% | 99.3% | 89.7% | 76.6% | 27.3% | 93% | 108% | 99.1% | 89.9% | 68.3% | 104% | 97.2% | 103% | 95.8% | 77.7% | 99.1% | 105% | 90.6% | 96.6% | 87.7% | 94.5% | 102% | 89.7% | 75% | 28.5%
10 | Nc1ncnc2c1c(COc1cccc(Cl)c1)nn2C1CCOCC1 | > 10 µM | > 10 µM | > 10 µM | > 10 µM | > 10 µM | 0 | 0 | 0 | 0 | 0.6 | 96.5% | 96.5% | 97.6% | 89.3% | 112% | 89.2% | 99.2% | 99.7% | 100% | 91.3% | 92.5% | 98.1% | 94.9% | 96.9% | 96.4% | 91.3% | 89.1% | 109% | 91.8% | 99.4% | 95.4% | 104% | 95.3% | 97.2% | 84.2%
11 | O=C(NC1(c2ccccc2)CC1)c1c(CN2CCC(N3CCCCC3)CC2)c(-c2cccc(C(F)(F)F)c2)nc2cc(Br)ccc12 | 3.09 µM | – | 2.81 µM | 3.4 µM | 2.02 µM | 3.4 | 2.5 | 5.2 | 2.7 | 7.8 | 93.3% | 98.3% | 102% | 99.3% | 38.4% | 95.4% | 88.3% | 112% | 98.8% | 55.2% | 98.5% | 95.1% | 101% | 96% | 15.7% | 93.6% | 101% | 104% | 102% | 45.4% | 97.1% | 90.2% | 96% | 85.8% | 1.2%
12 | O=C(NO)c1cnc(N2CCN(S(=O)(=O)c3ccc4ccccc4c3)CC2)nc1 | 1.71 µM | 0.894 µM | 1.4 µM | 1.29 µM | 1.34 µM | 8.8 | 11.2 | 9.4 | 8.9 | 7.7 | 102% | 97.5% | 100% | 79.2% | -0.1% | 104% | 128% | 84.7% | 51.8% | 4.3% | 97.9% | 98.4% | 94.5% | 69.3% | 4.2% | 107% | 96.8% | 91.5% | 65.6% | 11.7% | 107% | 103% | 98.9% | 75.5% | 24.1%
13 | O=C(Nc1c(-c2cccs2)nc2ccccn12)c1ccc(Cl)cc1 | > 10 µM | > 10 µM | > 10 µM | > 10 µM | > 10 µM | 0 | 0 | 0 | 0 | 0 | 96.7% | 103% | 96.6% | 95.1% | 92.9% | 99% | 95% | 104% | 97.5% | 102% | 104% | 96.7% | 103% | 99.3% | 103% | 98.9% | 95.3% | 99% | 101% | 91.4% | 106% | 104% | 103% | 86.9% | 107%
14 | O=C(O)[C@H](Cc1ccccc1)NCc1ccc(Cl)cc1 | > 10 µM | > 10 µM | > 10 µM | > 10 µM | > 10 µM | 0 | 0 | 0 | 0 | 0 | 99.8% | 102% | 92.9% | 99.4% | 101% | 107% | 99.6% | 106% | 101% | 102% | 95.2% | 98.7% | 91% | 98.3% | 94.5% | 95.6% | 101% | 97.1% | 93.3% | 103% | 92.8% | 91.5% | 93.8% | 98% | 92.5%
15 | O=C(O)c1ccc2c(c1)C(=O)N(c1cccc(Oc3ccc([N+](=O)[O-])cc3)c1)C2=O | > 10 µM | > 10 µM | > 10 µM | > 10 µM | > 10 µM | 0 | 0 | 0 | 0 | 0 | 94.1% | 99.7% | 98.7% | 90.1% | 100% | 92.5% | 102% | 98% | 94.7% | 100% | 95.5% | 99% | 94.6% | 99% | 94.3% | 104% | 94.8% | 95.5% | 92.9% | 103% | 94.8% | 96.5% | 104% | 96.8% | 99%
